Experimental data taken from patent US5047397A, “Linear analogs of atrial natriuretic peptides” (California Biotechnology Inc., priority 1988, dated 1991).
Where a SMILES comes first, the peptide text is derived from it. [ ]: non-standard residue; d: D form. The star is where a group is joined. Propanoyl(3-indol-3-yl) = O=C(CCc1c[nH]c2ccccc12)*; Acetyl(1-adamantyl) = O=C(CC12CC3CC(CC(C3)C1)C2)*; Phenylacetyl(4-Ph) = O=C(Cc1ccc(-c2ccccc2)cc1)*; Propanoyl(3,3-Ph2) = O=C(CC(c1ccccc1)c1ccccc1)*; Acetyl(1-naphthyloxy) = O=C(COc1cccc2ccccc12)*; Acetyl(2-naphthyloxy) = O=C(COc1ccc2ccccc2c1)*; Acetyl(2-naphthyl) = O=C(Cc1ccc2ccccc2c1)*; Fmoc = O=C(OCC1c2ccccc2-c2ccccc21)*; Cyclohexylacetyl = O=C(CC1CCCCC1)*; Aib = CC(C)(N)C(=O)O; Ahx = NCCCCCC(=O)O; Ava = NCCCCC(=O)O; GABA = NCCCC(=O)O; Sar = CNCC(=O)O

Biological target: T1, specific ANP receptor sites on BASM or BAE cells (Bos taurus, UniProt P10730)
T1 construct: specific receptor sites on BASM or BAE cells; endogenous in cells; host or cells: cultured BASM and BAE cells
T1 sequence (P10730 42-537): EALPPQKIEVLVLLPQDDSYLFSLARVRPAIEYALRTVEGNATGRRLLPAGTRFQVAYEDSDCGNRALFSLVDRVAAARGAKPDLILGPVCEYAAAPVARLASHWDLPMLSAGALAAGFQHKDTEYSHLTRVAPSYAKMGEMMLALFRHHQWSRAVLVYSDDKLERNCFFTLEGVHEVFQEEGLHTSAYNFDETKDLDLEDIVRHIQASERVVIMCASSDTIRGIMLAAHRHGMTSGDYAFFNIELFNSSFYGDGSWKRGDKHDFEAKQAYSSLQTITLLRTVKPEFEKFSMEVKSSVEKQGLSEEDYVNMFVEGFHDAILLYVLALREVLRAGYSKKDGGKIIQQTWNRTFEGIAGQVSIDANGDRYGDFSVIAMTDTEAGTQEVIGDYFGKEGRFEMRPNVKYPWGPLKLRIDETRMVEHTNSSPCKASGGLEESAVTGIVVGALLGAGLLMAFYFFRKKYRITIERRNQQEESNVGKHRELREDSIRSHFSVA
Experiment: Competitive displacement receptor binding of (125I)-rANP(126-150) on cultured cells
Set-up: species or system bovine
Conditions: concentration of unlabeled peptide displacing 50% of maximal binding of 0.5 nM (125I)-rANP(126-150); BASM or BAE cells
From the text: Analogous "competitive displacement" receptor binding assays are considered commonplace in the art for examining specific ligand-receptor interactions.
Assuming these ANP analogs act at one or more ANP receptor sites, then increased receptor affinity should reflect increased biological potency.

| SMILES | Ki(app) |
| --- | --- |
| CC[C@H](C)[C@H](NC(=O)[C@H](CCCNC(=N)N)NC(=O)[C@H](CC(=O)O)NC(=O)[C@@H](NC(=O)[C@H](CCCNC(=N)N)NC(=O)CNC(=O)CNC(=O)OCC1c2ccccc2-c2ccccc21)[C@@H](C)CC)C(=O)NCC(=O)N[C@@H](C)C(N)=O [AP312, (FMOC)--G--G--R--I--D--R--I--G--A--NH2] (Fmoc-GGRIDRIGA-NH2) | 6.27 nM |
| CC[C@H](C)[C@H](NC(=O)[C@H](CCCNC(=N)N)NC(=O)[C@H](CC(=O)O)NC(=O)[C@@H](NC(=O)[C@H](CCCNC(=N)N)NC(=O)CNC(=O)CNC(=O)CCc1c[nH]c2ccccc12)[C@@H](C)CC)C(=O)NCC(=O)N[C@@H](C)C(N)=O [AP313, (IP)--G--G--R--I--D--R--I--G--A--NH2] ({Propanoyl(3-indol-3-yl)}-GGRIDRIGA-NH2) | 4.52 nM |
| CC[C@H](C)[C@H](NC(=O)[C@H](CCCNC(=N)N)NC(=O)[C@H](CC(=O)O)NC(=O)[C@@H](NC(=O)[C@H](CCCNC(=N)N)NC(=O)CNC(=O)CNC(=O)COc1cccc2ccccc12)[C@@H](C)CC)C(N)=O [AP316, (1-NOA)--G--G--R--I--D--R--I--NH2] ({Acetyl(1-naphthyloxy)}-GGRIDRI-NH2) | 50.4 nM |
| CC[C@H](C)[C@H](NC(=O)[C@H](CCCNC(=N)N)NC(=O)[C@H](CC(=O)O)NC(=O)[C@@H](NC(=O)[C@H](CCCNC(=N)N)NC(=O)CNC(=O)CNC(=O)Cc1ccc(-c2ccccc2)cc1)[C@@H](C)CC)C(N)=O [AP317, (4-BPA)--G--G--R--I--D--R--I--NH2] ({Phenylacetyl(4-Ph)}-GGRIDRI-NH2) | 123.8 nM |
| CC[C@H](C)[C@H](NC(=O)[C@H](CCCNC(=N)N)NC(=O)[C@H](CC(=O)O)NC(=O)[C@@H](NC(=O)[C@H](CCCNC(=N)N)NC(=O)CNC(=O)CNC(=O)COc1ccc2ccccc2c1)[C@@H](C)CC)C(=O)NCC(=O)N[C@@H](C)C(N)=O [AP318, (2-NOA)--G--G--R--I--D--R--I--G--A--NH2] ({Acetyl(2-naphthyloxy)}-GGRIDRIGA-NH2) | 8.7 nM |
| CC[C@H](C)[C@H](NC(=O)[C@H](CCCNC(=N)N)NC(=O)[C@H](CC(=O)O)NC(=O)[C@@H](NC(=O)[C@H](CCCNC(=N)N)NC(=O)CN(C)C(=O)CNC(=O)Cc1ccc2ccccc2c1)[C@@H](C)CC)C(N)=O [AP320, (2-NA)--G--(Sar)--R--I--D--R--I--NH2] ({Acetyl(2-naphthyl)}-G[Sar]RIDRI-NH2) | 47.4 nM |
| CC[C@H](C)[C@H](NC(=O)[C@H](CCCNC(=N)N)NC(=O)[C@H](CC(=O)O)NC(=O)[C@@H](NC(=O)[C@H](CCCNC(=N)N)NC(=O)CNC(=O)[C@@H](C)NC(=O)COc1ccc2ccccc2c1)[C@@H](C)CC)C(N)=O [AP322, (2-NOA)--A^ --G--R--I--D--R--I--NH2] ({Acetyl(2-naphthyloxy)}-[dA]GRIDRI-NH2) | > 100 nM |
| CC[C@H](C)[C@H](NC(=O)[C@H](CCCNC(=N)N)NC(=O)[C@H](CC(=O)O)NC(=O)[C@@H](NC(=O)[C@H](CCCNC(=N)N)NC(=O)CCCCNC(=O)OCC1c2ccccc2-c2ccccc21)[C@@H](C)CC)C(N)=O [AP323, (FMOC)--NH(CH2)4 CO--R--I--D--R--I--NH2] ({Fmoc-Ava}-RIDRI-NH2) | 162.6 nM |
| CCNC(=O)[C@@H](NC(=O)[C@H](CCCNC(=N)N)NC(=O)[C@H](CC(=O)O)NC(=O)[C@@H](NC(=O)[C@H](CCCNC(=N)N)NC(=O)CNC(=O)CNC(=O)Cc1ccc2ccccc2c1)[C@@H](C)CC)[C@@H](C)CC [AP328, (2-NA)--G--G--R--I--D--R--I--NH(ethyl)] ({Acetyl(2-naphthyl)}-GGRIDRI-NHEt) | 19.87 nM |
| CC[C@H](C)[C@H](NC(=O)[C@H](CCCNC(=N)N)NC(=O)[C@H](CC(=O)O)NC(=O)[C@@H](NC(=O)[C@H](CCCNC(=N)N)NC(=O)CCCCCNC(=O)Cc1ccc2ccccc2c1)[C@@H](C)CC)C(N)=O [AP329, (2-NA)--NH(CH2)5 CO--R--I--D--R--I--NH2] ({Acetyl(2-naphthyl)-Ahx}-RIDRI-NH2) | 147.78 nM |
| CC[C@H](C)[C@H](NC(=O)[C@H](CCCNC(=N)N)NC(=O)[C@H](CC(=O)O)NC(=O)[C@@H](NC(=O)[C@H](CCCNC(=N)N)NC(=O)CNC(=O)CNC(=O)CC(c1ccccc1)c1ccccc1)[C@@H](C)CC)C(=O)NCC(=O)N[C@@H](C)C(N)=O [AP331, (3-DPP)--G--G--R--I--D--R--I--G--A--NH2] ({Propanoyl(3,3-Ph2)}-GGRIDRIGA-NH2) | 6.15 nM |

Next, values leading:

| Ki(app) | SMILES |
| --- | --- |
| 30.0 nM | CC[C@H](C)[C@H](NC(=O)[C@H](CCCNC(=N)N)NC(=O)[C@H](CC(=O)O)NC(=O)[C@@H](NC(=O)[C@H](CCCNC(=N)N)NC(=O)CNC(=O)CNC(=O)CC12CC3CC(CC(C3)C1)C2)[C@@H](C)CC)C(N)=O [AP309, (1-AA)--G--G--R--I--D--R--I--NH2] ({Acetyl(1-adamantyl)}-GGRIDRI-NH2) |
| 10.33 nM | CC[C@H](C)[C@H](NC(=O)[C@H](CCCNC(=N)N)NC(=O)[C@H](CC(=O)O)NC(=O)[C@@H](NC(=O)[C@H](CCCNC(=N)N)NC(=O)CNC(=O)CNC(=O)OCC1c2ccccc2-c2ccccc21)[C@@H](C)CC)C(N)=O [AP311, (FMOC)--G--G--R--I--D--R--I--NH2] (Fmoc-GGRIDRI-NH2) |
| 14.5 nM | CC[C@H](C)[C@H](NC(=O)[C@H](CCCNC(=N)N)NC(=O)[C@H](CC(=O)O)NC(=O)[C@@H](NC(=O)[C@H](CCCNC(=N)N)NC(=O)CNC(=O)CNC(=O)Cc1ccc2ccccc2c1)[C@@H](C)CC)C(N)=O [AP314, (2-NA)--G--G--R--I--D--R--I--NH2] ({Acetyl(2-naphthyl)}-GGRIDRI-NH2) |
| 6.0 nM | CC[C@H](C)[C@H](NC(=O)[C@H](CCCNC(=N)N)NC(=O)[C@H](CC(=O)O)NC(=O)[C@@H](NC(=O)[C@H](CCCNC(=N)N)NC(=O)CNC(=O)CNC(=O)COc1ccc2ccccc2c1)[C@@H](C)CC)C(N)=O [AP319, (2-NOA)--G--G--R--I--D--R--I--NH2] ({Acetyl(2-naphthyloxy)}-GGRIDRI-NH2) |
| 33.0 nM | CC[C@H](C)[C@H](NC(=O)[C@H](CCCNC(=N)N)NC(=O)[C@H](CC(=O)O)NC(=O)[C@@H](NC(=O)[C@H](CCCNC(=N)N)NC(=O)C(C)(C)NC(=O)CNC(=O)Cc1ccc2ccccc2c1)[C@@H](C)CC)C(N)=O [AP321, (2-NA)--G--(Aib)--R--I--D--R--I--NH2] ({Acetyl(2-naphthyl)}-G[Aib]RIDRI-NH2) |
| 48.5 nM | CC[C@H](C)[C@H](NC(=O)[C@H](CCCNC(=N)N)NC(=O)[C@H](CC(=O)O)NC(=O)[C@@H](NC(=O)[C@H](CCCNC(=N)N)NC(=O)CCCCNC(=O)Cc1ccc2ccccc2c1)[C@@H](C)CC)C(N)=O [AP324, (2-NA)--NH(CH2)4 CO--R--I--D--R--I--NH2] ({Acetyl(2-naphthyl)-Ava}-RIDRI-NH2) |
| > 100 nM | CC[C@H](C)[C@H](NC(=O)[C@H](CCCNC(=N)N)NC(=O)[C@H](CC(=O)O)NC(=O)[C@@H](NC(=O)[C@H](CCCNC(=N)N)NC(=O)CCCCCNC(=O)COc1ccc2ccccc2c1)[C@@H](C)CC)C(N)=O [AP325, (2-NOA)--NH(CH2)5 CO--R--I--D--R--I--NH2] ({Acetyl(2-naphthyloxy)-Ahx}-RIDRI-NH2) |
| 184 nM | CC[C@H](C)[C@H](NC(=O)[C@H](CCCNC(=N)N)NC(=O)[C@H](CC(=O)O)NC(=O)[C@@H](NC(=O)[C@H](CCCNC(=N)N)NC(=O)CCCNC(=O)Cc1ccc2ccccc2c1)[C@@H](C)CC)C(N)=O [AP327, (2-NA)--NH(CH2)3 CO--R--I-- D--R--I--NH2] ({Acetyl(2-naphthyl)-GABA}-RIDRI-NH2) |
| 16.4 nM | CC[C@H](C)[C@H](NC(=O)[C@H](CCCNC(=N)N)NC(=O)[C@H](CC(=O)O)NC(=O)[C@@H](NC(=O)[C@H](CCCNC(=N)N)NC(=O)CNC(=O)[C@@H](CO)NC(=O)Cc1ccc2ccccc2c1)[C@@H](C)CC)C(N)=O [AP330, (2-NA)--S^ --G--R--I--D--R--I--NH2] ({Acetyl(2-naphthyl)}-[dS]GRIDRI-NH2) |
| 44.2 nM | CC[C@H](C)[C@H](NC(=O)[C@H](CCCNC(=N)N)NC(=O)CNC(=O)CNC(=O)Cc1ccc2ccccc2c1)C(=O)N[C@@H](CC(=O)O)C(=O)N[C@@H](CCCNC(=N)N)C(=O)N[C@@H](CC(C)C)C(N)=O [AP332, (2-NA)--G--G--R--I--D--R--L--NH2] ({Acetyl(2-naphthyl)}-GGRIDRL-NH2) |
| 106.4 nM | CC[C@H](C)[C@H](NC(=O)[C@H](CCCNC(=N)N)NC(=O)CNC(=O)CNC(=O)Cc1ccc2ccccc2c1)C(=O)N[C@@H](CC(=O)O)C(=O)N[C@@H](CCCNC(=N)N)C(=O)N[C@H](C(N)=O)C(C)C [AP333, (2-NA)--G--G--R--I--D--R--V--NH2] ({Acetyl(2-naphthyl)}-GGRIDRV-NH2) |
| 92.8 nM | CC[C@H](C)[C@H](NC(=O)[C@H](CCCNC(=N)N)NC(=O)[C@H](CC(=O)O)NC(=O)[C@@H](NC(=O)[C@H](CCCNC(=N)N)NC(=O)CNC(=O)CNC(=O)CC1CCCCC1)[C@@H](C)CC)C(N)=O [AP334, (CHA)--G--G--R--I--D--R--I--NH2] (Cyclohexylacetyl-GGRIDRI-NH2) |
